Where a SMILES comes first, the peptide text is derived from it. Where no end group is shown, it is not given here. The star is where a group is joined. FITC = O=C1OC2(c3ccc(O)cc3Oc3cc(O)ccc32)c2ccc(NC(=S)*)cc21; Ahx = NCCCCCC(=O)O
System: mesothelial cells
Assay: Intracellular uptake of FITC-YARA by flow cytometry / confocal imaging
Type: cell-based, Human
Description: Flow cytometry was used to characterize the uptake of FITC-YARA. Mesothelial cells were seeded on gel substrates or tissue culture plastic, and cultured as previously described. After treating overnight with serum free media, cells were treated with various concentrations of FITC-YARA (refer to figures) or PBS (untreated control) in serum free media and incubated for 24 hours. To collect cells for flow cytometry, cells were washed with PBS, trypsin treated for 5–10 minutes, neutralized with serum-containing media, collected in a 15-ml conical tube and spun down at 300 × g for seven minutes. Cells were washed with PBS, quenched with trypan blue, then washed four to five times with PBS. Once excess trypan blue was washed away, cells were fixed using 1X cytofix buffer (BD). Samples were stored protected from light at 4°C until samples were run on the Cytomics FC500 MPL flow cytometer (Beckman Coulter) equipped with MXP Cytometry List Mode Data Acquisition and Analysis Software. Data acquisition required 10,000 events. Figures were obtained using Flow Jo software.
To characterize uptake on soft substrates, cells were pretreated with 10 mM methyl-β-cyclodextrin (MβCD) for 1 hour or incubated at 4°C for 30 minutes, then treated with 3 µM YARA for 1 hour. Cells were then collected and assayed by flow cytometry as previously described.
To elucidate the role of the cytoskeleton in the uptake of FITC-YARA, mesothelial cells were treated with various chemicals known to alter the cytoskeleton. Cytochalasin D (Sigma; 5 µg/ml) was used as an inhibitor of stress fiber formation on tissue culture plastic, lysophosphatidic acid (LPA; Sigma; 1,5,and 25 µg/ml ) was used to induce stress fiber formation on soft substrates and tissue culture plastic, and nocodozole (Calbiochem; 1 and 10 µg/ml) was used to inhibit microtubule polymerization on soft substrates. Cells were seeded and grown on substrates or tissue culture plastic as previously described. Following one hour pretreatment with the various inhibitors, cells were incubated with FITC-YARA for 1 hour then processed for flow cytometry.
For confocal images, cells were treated with FITC-YARA for 1 hour, then washed five times with media before imaging live using an FV1000 confocal microscopy equipped with ASW-10 software (Olympus).

Row | Compound | uptake on soft substrates compared to tissue culture plastic at high seeding density (3 µM FITC-YARA, 71,000 cells/cm^2, flow cytometry) | uptake on soft substrates compared to tissue culture plastic (3 µM FITC-YARA, 24 h, 21,000 cells/cm^2, serum-free media, flow cytometry, trypan blue quench) | intracellular uptake compared to untreated controls (all substrates, 3 µM FITC-YARA, 24 h, flow cytometry) | uptake on soft substrates with MβCD (soft substrate, 10 mM methyl-β-cyclodextrin pretreatment 1 h then 3 µM peptide 1 h, flow cytometry) | uptake on soft substrates at 4°C (soft substrate, 30 min at 4°C then 3 µM peptide 1 h, flow cytometry) | effect of cytochalasin D (actin filament disruption) on peptide uptake (3 µM, TCPS, 5 µg/ml cytochalasin D 1 h pretreatment, peptide 1 h, flow cytometry) | effect of nocodazole (microtubule polymerization inhibition) on uptake (3 µM, soft substrate, 21,000 cells/cm^2, 1 or 10 µg/ml nocodazole 1 h pretreatment, peptide 1 h, flow cytometry, dose dependent) | effect of LPA (actin filament induction) on peptide uptake (3 µM, soft substrate, 21,000 cells/cm^2, 5 or 25 µg/ml LPA 1 h pretreatment, peptide 1 h, flow cytometry)
1 | CC(C)C[C@H](NC(=O)[C@H](C)NC(=O)[C@H](CCCCN)NC(=O)[C@H](C)NC(=O)[C@H](CCCNC(=N)N)NC(=O)[C@H](C)NC(=O)[C@H](CCC(N)=O)NC(=O)[C@H](CCCNC(=N)N)NC(=O)[C@H](C)NC(=O)[C@H](C)NC(=O)[C@H](C)NC(=O)[C@H](CCCNC(=N)N)NC(=O)[C@H](C)NC(=O)[C@H](Cc1ccc(O)cc1)NC(=O)CCCCCNC(=S)Nc1ccc2c(c1)C(=O)OC21c2ccc(O)cc2Oc2cc(O)ccc21)C(=O)N[C@@H](C)C(=O)N[C@@H](CCCNC(=N)N)C(=O)N[C@@H](CCC(N)=O)C(=O)N[C@@H](CC(C)C)C(=O)NCC(=O)N[C@H](C(=O)N[C@@H](C)C(=O)N[C@@H](C)C(N)=O)C(C)C [FITC-YARA] ({FITC-Ahx}-YARAAARQARAKALARQLGVAA-NH2) | decreased the amount of FITC-YARA that was endocytosed | approximately double the uptake | increased intracellular uptake compared to untreated controls | inhibited with MβCD pretreatment | inhibited at low temperatures |  |  | 
2 | YARAAARQARAKALARQLGVAA-NH2 [YARA] |  |  |  |  |  | no effect on peptide uptake | pronounced increase in YARA uptake | no effect on peptide uptake

From paper PMC3882240, “Matrix Stiffness Affects Endocytic Uptake of MK2-Inhibitor Peptides” (PLoS ONE, 2014)
